Experiments:
Type in all cases: cell-based, Nicotiana tabacum
[1] = tested on: stably transformed tobacco cells; assay: Transport time course in protoplasts from stably transformed tobacco cells incubated with BFA; conditions: stable transformants, 30 μg/ml BFA, 240 minute period (FIG. 18)
Protocol: The experiment shown in FIG. 17 was conducted using a standard transient expression assay with a 24-hour incubation period. This is a long time-period and it is possible that prolonged inhibition of the recycling of essential COPII vesicle budding components leads eventually to an inhibition of anterograde transport. […] To test this, we have carried out a transport experiment in which stably transformed tobacco cells were incubated for different time-periods in the presence of BFA. Under these circumstances, protoplasts contain a steady state level of amy or amy-HDEL from the very beginning of the experiment. This steady state level is very high for amy-HDEL, thus secretion of the cargo into the medium should be detected with high sensitivity if BFA first inhibits […] retrograde transport while COPII anterograde transport is still efficient. […] It was not possible to detect a transient induction of amy-HDEL secretion prior to the inhibition of amy secretion.

tobacco protoplasts [2] = assay: Transient expression transport assay for phytepsin, read by protein gel blot of medium and cells; conditions: increasing BFA concentration (FIG. 22)
Description: Transient expression experiment showing the influence of BFA (indicated above each lane in μg/ml final concentration) on secretion to the medium (M), intracellular retention (C) and the partitioning between processed (closed arrows) and un-processed (open arrows) forms of phyteposin. Note that BFA inhibits both secretion and intracellular processing of phytepsin.
(§1) Tobacco leaf protoplasts were electroporated as described (Denecke and Vitale, 1995), and plasmid concentrations used are given in the figure legends. Harvesting of cells and culture medium as well as the enzymatic assays were done as described previously (Denecke and Vitale, 1995; Crofts et al., 1999; Leborgne-Castel et al., 1999). Equal volumes of cells and medium were loaded on protein gel blots or analysed via enzymatic assays to determine the fraction of the marker proteins inside and outside of the cells and to calculate the secretion index (Denecke et al., 1990). Membrane recruitment was assessed by an osmotic shock procedure described previously (Denecke et al., 1990; Denecke et al., 1992).
Samples were loaded after twofold dilution with 2×SDS-PAGE loading buffer (200 mM Tris-Cl, pH 8.8, 5 mM EDTA, 1 M sucrose, and 0.1% bromophenol blue). Proteins in SDS-polyacrylamide gels were transferred onto a nitrocellulose membrane and then blocked with PBS, 0.5% Tween 20, and 5% milk powder for 1 hr. […]

tobacco protoplasts [3] = assay: Transient expression transport assay: secretion index and total activity of α-amylase cargo molecules
Description: as §1
Protoplasts were extracted in α-amylase extraction buffer (Crofts et al., 1999) via sonication for 5 seconds. In all cases, extracts were cleared by 10 min centrifugation at 2500 g at 4° C. and the supernatant was recovered. α-amylase activity was determined as described (Crofts et al., 1999).
It is established that the molecular target of BFA is the guanosine nucleotide exchange factor for ARF1p, resulting in a stabilisation of an abortive complex with the GDP-bound form of ARF1p at the Golgi membrane. To test if inhibition of retrograde and anterograde transport can be dissected, we decided to utilise the secreted cargo molecule α-amylase (amy) and its derivative carrying an ER retention signal (amy-HDEL), which permits a quantitative analysis of transport rates in tobacco leaf protoplasts (FIGS. 1-6). We have shown before that the secretion index (SI), the ratio between extra- and intracellular activities, provides a simple way to compare relative transport rates at a defined time-point. In addition, amy and amy-HDEL have identical specific enzyme activity and stability throughout the secretory pathway. While both molecules are expected to have identical ER export properties (FIG. 16, route 1), only amy-HDEL can undergo retrograde transport from the Golgi (FIG. 16, route 2). If saturation of the HDEL receptor occurs, amy-HDEL is expected to reach the cell surface in the same manner as amy (FIG. 16, routes 3 and 7). We now tested the influence of different concentrations of BFA on the transport of either cargo molecules via transient gene expression in tobacco protoplasts. […] This effect is less obvious for amy-HDEL.

[4] = 24-hour incubation, increasing BFA concentration (FIG. 17)

C[C@H]1CCC/C=C/[C@@H]2C[C@H](O)C[C@H]2[C@H](O)/C=C/C(=O)O1 [BFA, Brefeldin A]
secretion of amy, secretion index over time [1]: only inhibits the secretion of amy
secretion of amy-HDEL, secretion index over time [1]: slightly induced after prolonged incubation (80 minutes and more)
intracellular processing of the phytepsin precursor (tobacco protoplasts [2]): inhibits processing of the phytepsin precursor
secretion of phytepsin precursor to the medium (tobacco protoplasts [2]): secretion was inhibited at the lowest concentration of BFA used
total activity (medium+cells) of amy-HDEL (tobacco protoplasts [3]; 24-hour incubation, BFA present (FIG. 17 lower panel)): slightly increased total activity for amy-HDEL
total amount of α-amylase (amy) produced (medium+cells) (tobacco protoplasts [3]; 24-hour incubation, BFA treatment (FIG. 17)): reduction in the total amount of α-amylase
secretion of amy-HDEL, secretion index (tobacco protoplasts [3]; [4]): hardly influenced by the drug
secretion of α-amylase (amy), secretion index (tobacco protoplasts [3]; [4]): concentration-dependent inhibition of α-amylase secretion
secretion of amy-spo to the medium (tobacco protoplasts [3]; increasing BFA concentration (FIG. 25B)): does not induce secretion of the cargo molecule

From patent US20050019855A1, “Methods to increase the productivity of meterologous gene expression” (priority 2001, published 2005)
